Active and inactive are the calls of the source. The calls are words filed in the database; no cut-off is given here.
Legend:
[1] = system: K562; assay: Cytotoxicity against human K562 cells after 4 days by MTT assay; assay type: functional, cell-based; settings: K562, 96 h
[2] = system: Saccharomyces cerevisiae; assay: Growth restoration activity in cdc2-1 rad9-deficient Saccharomyces cerevisiae assessed as growth zone at 2 ug/disc incubated at 37 degC for 6 hrs and 28 degC for 2 days; assay type: functional
[3] = Growth inhibition of human BSY1 cells; assay type: functional; settings: BSY-1
[4] = system: A549; assay: Growth inhibition of human A549 cells; assay type: functional
[5] = system: HL-60; assay: Induction of apoptosis in human HL60 cells assessed as condensed and fragmented nuclie at 10.6 uM after 18 hrs by Hoechst staining-based microscopic analysis relative to control; assay type: functional, cell-based
[6] = biological target: T1, MAP kinase p38 (Homo sapiens) (UniProt O15264+Q15759+Q16539+P53778); assay: Induction of p38 MAPK phosphorylation at T180/Y182 in human HL60 cells at 5 uM after 6 hrs by Western blot analysis; assay type: cell-based; settings: HL-60
[7] = system: HL-60; assay: Induction of apoptosis in human HL60 cells assessed as caspase 3/7 activation at 20 uM after 3 hrs by spectrophotometric analysis; assay type: functional, cell-based
[8] = Growth inhibition of human HBC5 cells; assay type: functional
[9] = system: HL-60; assay: Induction of apoptosis in human HL60 cells assessed as caspase 9 activation after 1 to 6 hrs by spectrophotometric analysis; assay type: functional, cell-based
[10] = system: HCC 2998; assay: Growth inhibition of human HCC2998 cells; assay type: functional
[11] = system: HL-60; assay: Cytotoxicity against human HL60 cells assessed as cell viability at 2 uM by MTT assay in presence of 20 uM Fe2(SO4)3; assay type: functional
[12] = system: HL-60; assay: Induction of apoptosis in human HL60 cells assessed as DNA fragmentation after 24 hrs by Hoechst staining-based microscopic analysis in presence of 100 uM free radical scavenger vitamin E; assay type: functional, cell-based
[13] = biological target: T1, MAP kinase p38 (Homo sapiens); assay: Induction of p38 MAPK phosphorylation at T180/Y182 in human HL60 cells at 10 uM after 3 hrs by Western blot analysis; assay type: cell-based; settings: HL-60
[14] = system: SF-539; assay: Growth inhibition of human SF539 cells; assay type: functional
[15] = system: LOX IMVI; assay: Antitumor activity against human LOXIMVI cells xenografted in nude mouse assessed as decrease in tumor volume at 25 mg/kg, iv administered on day 1, 6 and 11 post tumor inoculation measured on day 21; assay type: functional; set-up: scale not given: the % may be the effect or the level left
[16] = system: MKN-74; assay: Growth inhibition of human MKN74 cells; assay type: functional
[17] = system: HL-60; assay: Induction of apoptosis in human HL60 cells assessed as DNA fragmentation after 24 hrs by Hoechst staining-based microscopic analysis preincubated with 5 uM JNK inhibitor SP600125; assay type: functional, cell-based
[18] = system: LOX IMVI; assay: Growth inhibition of human LOXIMVI cells; assay type: functional
[19] = system: MCF7; assay: Growth inhibition of human MCF7 cells; assay type: functional
[20] = system: ACHN; assay: Growth inhibition of human ACHN cells; assay type: functional
[21] = system: SF-295; assay: Growth inhibition of human SF295 cells; assay type: functional
[22] = system: Saccharomyces cerevisiae; assay: Growth restoration activity in cdc2-1 rad9-deficient Saccharomyces cerevisiae assessed as growth zone incubated at 37 degC for 6 hrs and 28 degC for 2 days relative to mycophenolic acid; assay type: functional
[23] = system: U-251; assay: Growth inhibition of human U251 cells; assay type: functional
[24] = system: HL-60; assay: Induction of apoptosis in human HL60 cells assessed as caspase 3/7 activation after 1 to 6 hrs by spectrophotometric analysis; assay type: functional, cell-based
[25] = system: HL-60; assay: Ratio of IC50 for human HL60 cells in presence of DFOM to IC50 for human HL60 cells in absence of DFOM; assay type: functional
[26] = system: NCI-H23; assay: Growth inhibition of human NCI-H23 cells; assay type: functional
[27] = system: MKN-45; assay: Growth inhibition of human MKN45 cells; assay type: functional
[28] = system: OVCAR-5; assay: Growth inhibition of human OVCAR5 cells; assay type: functional
[29] = system: Saccharomyces cerevisiae; assay: Growth restoration activity in cdc2-1 rad9-deficient Saccharomyces cerevisiae assessed as growth zone at 1 ug/disc incubated at 37 degC for 6 hrs and 28 degC for 2 days; assay type: functional
[30] = system: MKN-7; assay: Growth inhibition of human MKN7 cells; assay type: functional
[31] = system: HL-60; assay: Induction of apoptosis in human HL60 cells assessed as DNA fragmentation at 1.25 to 40 uM by Hoechst staining-based microscopic analysis; assay type: functional, cell-based; settings: TDE = time-dependent effect
[32] = system: HL-60; assay: Induction of apoptosis in human HL60 cells assessed as DNA fragmentation after 24 hrs by Hoechst staining-based microscopic analysis; assay type: functional, cell-based
[33] = Prodrug conversion in buffer at pH 8 assessed as (1)- 7-(1,5-Dimethyl-hex-4-enyl)-4-methyl-3,8-dioxa-tricyclo[5.1.0.0*2,4*]octane formation after 24 hrs by HPLC analysis in presence of 25 mM FeSO4; assay type: physicochemical; settings: pH 8, 24 h
[34] = system: HL-60; assay: Induction of apoptosis in human HL60 cells assessed as caspase 8 activation at 20 uM after 3 hrs by spectrophotometric analysis; assay type: functional, cell-based
[35] = system: HL-60; assay: Cytotoxicity against human HL60 cells after 48 hrs by MTT assay in absence of DFOM; assay type: functional, cell-based; settings: HL-60, 48 h
[36] = system: HL-60; assay: Cytotoxicity against human HL60 cells assessed as cell viability at 2 uM by MTT assay; assay type: functional; settings: read-out: Activity
[37] = system: Saccharomyces cerevisiae; assay: Growth restoration activity in cdc2-1 rad9-deficient Saccharomyces cerevisiae assessed as growth zone at 0.5 ug/disc incubated at 37 degC for 6 hrs and 28 degC for 2 days; assay type: functional
[38] = system: HL-60; assay: Cytotoxicity against human HL60 cells after 48 hrs by MTT assay in presence of DFOM; assay type: functional, cell-based; settings: HL-60, 48 h
[39] = Growth inhibition of human RXF631L cells; assay type: functional; settings: RXF 631
[40] = system: KM12; assay: Growth inhibition of human KM12 cells; assay type: functional
[41] = system: HL-60; assay: Cytotoxicity against human HL60 cells assessed as cell viability at 2 uM by MTT assay in presence of 20 uM FeSO4; assay type: functional
[42] = system: HL-60; assay: Induction of apoptosis in human HL60 cells assessed as caspase 9 activation at 20 uM after 3 hrs by spectrophotometric analysis; assay type: functional, cell-based
[43] = system: DU-145; assay: Growth inhibition of human DU145 cells; assay type: functional
[44] = system: MKN-28; assay: Growth inhibition of human MKN28 cells; assay type: functional
[45] = system: NCI-H522; assay: Growth inhibition of human NCI-H522 cells; assay type: functional
[46] = system: HL-60; assay: Induction of apoptosis in human HL60 cells assessed as DNA fragmentation after 24 hrs by Hoechst staining-based microscopic analysis in presence of 10 mM hydrogen peroxide scavenger NAC; assay type: functional, cell-based
[47] = system: PC-3; assay: Growth inhibition of human PC3 cells; assay type: functional
[48] = system: HCT-116; assay: Growth inhibition of human HCT116 cells; assay type: functional
[49] = system: HL-60; assay: Induction of apoptosis in human HL60 cells assessed as DNA fragmentation after 24 hrs by Hoechst staining-based microscopic analysis in presence of 50 uM superoxide scavenger allopurinol; assay type: functional, cell-based
[50] = system: HL-60; assay: Induction of apoptosis in human HL60 cells assessed as DNA fragmentation after 24 hrs by Hoechst staining-based microscopic analysis preincubated with 20 uM p38 MAPK inhibitor SB203580; assay type: functional, cell-based
[51] = Growth inhibition of human MKN1 cells; assay type: functional; settings: MKN-1
[52] = system: LNCaP; assay: Cytotoxicity against human LNCAP cells after 4 days by MTT assay; assay type: functional, cell-based; settings: 96 h

## CC(C)=CCCC(C)C12C=CC(C)(CC1)OO2 (configuration not stated)
[1]
  IC50: 9100 nM
[2]
  Activity: 24.1 mm
[3]
  GI50: 2950 nM
[4]
  GI50: 1550 nM
[5]
  Activity: Active
[6]
  Activity: Active
[7]
  Activity: Active
[8]
  GI50: 191 nM
[9]
  Activity: Dose-dependent effect
[10]
  GI50: 4680 nM
[11]
  Activity: 34.9%
[12]
  Activity: inactive
[13]
  Activity: Active
[14]
  GI50: 2570 nM
[15]
  Activity: 26.9%
[16]
  GI50: 1170 nM
[17]
  Activity: Active
[18]
  GI50: 214 nM
[19]
  GI50: 2090 nM
[20]
  GI50: 1230 nM
[21]
  GI50: 1660 nM
[22]
  fold change (FC): 50
[23]
  GI50: 5010 nM
[24]
  Activity: Dose-dependent effect
[25]
  Ratio IC50: 10
[26]
  GI50: 1700 nM
[27]
  GI50: 6310 nM
[28]
  GI50: 12000 nM
[29]
  Activity: 19 mm
[30]
  GI50: 3630 nM
[31]
  Activity: tde
[32]
  Activity: Dose-dependent effect
[33]
  Drug metabolism: Active
[34]
  Activity: Active
[35]
  IC50: 3700 nM
[36]
  viability at 2 µM: 77.8%
[37]
  Activity: 0 mm
[38]
  IC50: 35500 nM
[39]
  GI50: 2510 nM
[40]
  GI50: 1860 nM
[41]
  Activity: 33.2%
[42]
  Activity: Active
[43]
  GI50: 2630 nM
[44]
  GI50: 8320 nM
[45]
  GI50: 200 nM
[46]
  Activity: Active
[47]
  GI50: 1820 nM
[48]
  GI50: 3720 nM
[49]
  Activity: Active
[50]
  Activity: inactive
[51]
  GI50: 1740 nM
[52]
  IC50: 23400 nM

— ChEMBL document CHEMBL2062379, “Cleavage mechanism and anti-tumor activity of 3,6-epidioxy-1,10-bisaboladiene isolated from edible wild plants” (Bioorg Med Chem, 2012)
